# Legend:
# [1] = system: peritoneal cells of mice; experiment: Cell viability of mouse peritoneal cells (WST-1 kit); format: cell-based; conditions: substance 50 μmol·l^−1, 24 h; for Cell viabilities in % of the controls: Table 3B; for Cell viability in % of the controls: Table 3A
# Protocol: Cell viability was determined in the standard way using a WST-1 kit (Roche). The values of the viability of the control cells were for the purposes of comparison between experiments considered as 100%. The influence of the substances on the longevity of the cells was evaluated in percentage with respect to the control values.
# (§1) Experiments were performed on mice peritoneal cells C57BL/6 (Charles River, Germany—AnLabu).
# (§2) NO production was induced using IFN-g (5000 pg/mL) plus LPS (100 pg/mL); evaluated (Griess reagent) after 24 h of the cell cultivation (2×10^6/mL). PGE2 was induced using LPS (10 ng/mL); evaluated (ELISA) following 6 h cultivation of cells (3×10^6/mL). Cell longevity was evaluated using WST-1 (tetrazolium salt), following 24 h cultivation of cells (1×10^6/mL). The values mentioned in the table represent the effects of the substances tested in a concentration of 50 μmol·l^−1.
# [2] = system: production of nitric oxide (NO); experiment: Production of nitric oxide (NO) in cultures of mouse peritoneal cells stimulated with IFN-γ plus LPS (Griess reagent); format: cell-based, mice; conditions: substance 50 μmol·l^−1, IFN-g plus LPS, 24 h
# Protocol: (§3) Under in vitro conditions, the effect of the pyrimidine compounds according to this invention was tested in terms of the production of nitric oxide (NO) and in terms of the production of prostaglandin E2 (PGE2) in cultures of the peritoneal cells of mice.
# NO is a product of the metabolism of L-arginine, quickly changes to […], which are then measured using the Griess reagent system. Under normal conditions, the production of NO is practically zero. It only occurs after some stimulation. In these experiments, interferon-gamma (IFN-γ) and bacterial lipopolysacharide (LPS) were used as stimulators. The values of NO induced in this way fluctuated in the individual experiments in a range from 52 to 89 μmol·l^−1; for the purposes of comparison between the experiments they were considered as 100%. The production of NO after the application of the substances was expressed in percentage with respect to the control values. (The lower the value, the higher the inhibition effect of the substances on NO production.) IC50 are the concentrations of the substances reducing the production of NO by 50% with respect to the controls.
# as §1, §2
# [3] = system: production of prostaglandin E2 (PGE2); experiment: Production of prostaglandin E2 (PGE2) in cultures of mouse peritoneal cells stimulated with LPS (ELISA kit); format: cell-based, mice; conditions: for Production of prostaglandins IC50 (μmol · 1^−1) average value and range of values: Table 3B, 6 h; for Production of prostaglandins in % of the controls: Table 3A, substance 50 μmol·l^−1, 6 h
# Protocol: as §3
# The influence on the production of prostaglandin E2 (PGE2) in vitro caused by the activity of the pyrimidine compounds according to the submitted invention was determined in cultures of the peritoneal cells of mice using a commercial kit (R&DSystems). The concentrations of PGE2 after lipopolysacharide (LPS) stimulation reached in the individual experiments values in a range of 22 to 91 ng·ml^−1 and for the purposes of comparison between the experiments were considered as 100%. The influence of the substances on the production of PGE2 was evaluated in percentage with respect to the control values.
# as §1, §2
SMILES,Cell viability in % of the controls [1],Production of nitric oxide in % of the controls ([2]; Table 3A),other results
CCCCc1c(Cl)nc(N)nc1-c1cccc2ccccc12 [Substance 142],,,Cell viabilities in % of the controls [1]: 114.07 ± 8.00; n = 8 % of the controls; Production of nitric oxide in % of the controls ([2]; Table 3B): 43.99 ± 6.06; n = 6 % of the controls; Production of prostaglandins IC50 (μmol · 1^−1) average value and range of values [3]: 9.14 ± 2.71; n = 4 μmol · 1^−1
CCCCc1c(-c2cc3ccccc3o2)nc(N)nc1-c1cc2ccccc2o1 [Substance 47],75.01 ± 13.63 % of the controls,41.23 ± 18.49 % of the controls,
CCCCc1c(-c2ccoc2)nc(N)nc1-c1ccoc1 [Substance 105],,,Cell viabilities in % of the controls [1]: 101.86 ± 5.13; n = 4 % of the controls; Production of nitric oxide in % of the controls ([2]; Table 3B): 49.07 ± 4.67; n = 4 % of the controls; Production of prostaglandins IC50 (μmol · 1^−1) average value and range of values [3]: 50.30 ± 9.52; n = 4 μmol · 1^−1
Cc1c(Cl)nc(NC=O)nc1Cl [Substance 48],66.37 ± 8.13 % of the controls,1.35 ± 0.01 % of the controls,Production of prostaglandins in % of the controls [3]: 36.31 ± 1.99 % of the controls
CCCCc1c(-c2cccnc2)nc(N)nc1-c1cc2ccccc2s1 [Substance 128],,,Cell viabilities in % of the controls [1]: 79.62 ± 4.12; n = 8 % of the controls; Production of nitric oxide in % of the controls ([2]; Table 3B): 64.91 ± 6.60 n = 4 % of the controls; Production of prostaglandins IC50 (μmol · 1^−1) average value and range of values [3]: 31.10 ± 10.43; n = 4 μmol · 1^−1
CCCCc1c(Cl)nc(N)nc1-c1ccccc1 [Substance 41],108.24 ± 7.40 % of the controls,47.82 ± 6.08 % of the controls,
CCCCc1c(-c2ccccc2)nc(N)nc1-c1ccc(F)cc1 [Substance 69],,,Cell viabilities in % of the controls [1]: 121.04 ± 9.53; n = 4 % of the controls; Production of nitric oxide in % of the controls ([2]; Table 3B): 71.24 ± 4.28; n = 4 % of the controls; Production of prostaglandins IC50 (μmol · 1^−1) average value and range of values [3]: 75.40 ± 21.62; n = 4 μmol · 1^−1
CCCCc1c(-c2ccccc2)nc(N)nc1-c1ccccc1 [Substance 45],297.33 ± 23.17 % of the controls,73.29 ± 1.40 % of the controls,
CCCCc1c(-c2cccnc2)nc(N)nc1-c1cccnc1 [Substance 46],107.08 ± 2.94 % of the controls,70.00 ± 4.82 % of the controls,
Nc1nc(Br)c(Cc2ccccc2)c(Br)n1 [Substance 40],90.18 ± 3.75 % of the controls,32.45 ± 10.99 % of the controls,
CCCCc1c(Cl)nc(N(C)C)nc1Cl [Substance 63],,64.97 ± 2.92 % of the controls,
CCCCc1c(-c2ccncc2)nc(N)nc1-c1ccc(OC)cc1 [Substance 83],,,Cell viabilities in % of the controls [1]: 95.41 ± 4.70; n = 8 % of the controls; Production of nitric oxide in % of the controls ([2]; Table 3B): 63.81 ± 5.32; n = 6 % of the controls
CCCCc1c(Cl)nc(C)nc1Cl [Substance 62],80.93 ± 0.84 % of the controls,41.21 ± 5.50 % of the controls,
Cc1c(Cl)nc(N)nc1Cl [Substance 25],98.55 ± 17.60 % of the controls,47.30 ± 13.48 % of the controls,
CCCCc1c(Cl)nc(N)nc1-c1cccnc1 [Substance 43],166.77 ± 22.51 % of the controls,58.68 ± 0.92 % of the controls,
C#CCc1c(Cl)nc(N)nc1Cl [Substance 33],90.58 ± 17.05 % of the controls,35.98 ± 14.08 % of the controls,
Nc1nc(Cl)c(-c2ccccc2)c(Cl)n1 [Substance 31],82.53 ± 8.73 % of the controls,36.11 ± 8.38 % of the controls,
CCC(C)c1c(Cl)nc(N)nc1Cl (stereo not drawn) [Substance 30],111.90 ± 9.63 % of the controls,47.48 ± 6.22 % of the controls,

SMILES,Cell viability in % of the controls [1],Production of nitric oxide in % of the controls ([2]; Table 3A),other results
Nc1nc(I)c(Cc2ccccc2)c(I)n1 [Substance 38],78.60 ± 5.33 % of the controls,34.80 ± 0.31 % of the controls,
CCCCc1c(Cl)nc(N)nc1-c1ccsc1 [Substance 42],157.36 ± 5.16 % of the controls,63.18 ± 0.89 % of the controls,
Nc1nc(Cl)c(Cc2ccccc2)c(I)n1 [Substance 39],67.81 ± 3.08 % of the controls,18.30 ± 7.66 % of the controls,
CCc1c(Cl)nc(N)nc1Cl [Substance 26],91.53 ± 10.78 % of the controls,48.59 ± 9.49 % of the controls,
CCCCc1c(Cl)nc(N)nc1-c1cccs1 [Substance 93],,,Cell viabilities in % of the controls [1]: 74.47 ± 0.81; n = 4 % of the controls; Production of prostaglandins IC50 (μmol · 1^−1) average value and range of values [3]: 11.47 ± 2.73; n = 4 μmol · 1^−1
CCCCc1c(-c2ccncc2)nc(N)nc1-c1cccnc1 [Substance 84],,,Cell viabilities in % of the controls [1]: 109.54 ± 4.48; n = 8 % of the controls; Production of nitric oxide in % of the controls ([2]; Table 3B): 47.55 ± 7.12; n = 6 % of the controls
CCCCc1c(Cl)nc(N)nc1-c1cc2ccccc2o1 [Substance 44],147.78 ± 5.90 % of the controls,62.62 ± 0.19 % of the controls,
CC(C)c1c(Cl)nc(N)nc1Cl [Substance 29],91.18 ± 9.90 % of the controls,36.97 ± 8.22 % of the controls,
CCCCc1c(-c2cccnc2)nc(N)nc1-c1cccnc1 [Substance 81],,,Cell viabilities in % of the controls [1]: 82.21 ± 7.34; n = 8 % of the controls; Production of nitric oxide in % of the controls ([2]; Table 3B): 50.07 ± 3.04; n = 6 % of the controls
CCCCc1c(Cl)nc(N)nc1-c1ccncc1 [Substance 85],,,Cell viabilities in % of the controls [1]: 87.62 ± 6.58; n = 4 % of the controls; Production of nitric oxide in % of the controls ([2]; Table 3B): 49.34 ± 4.20; n = 4 % of the controls
C=C(Cl)Cc1c(Cl)nc(NC=O)nc1Cl [Substance 60],37.13 ± 1.27 % of the controls,0.13 ± 0.13 % of the controls,
CCCCc1c(Cl)ncnc1Cl [Substance 61],73.73 ± 0.99 % of the controls,27.38 ± 1.88 % of the controls,
C#CCc1c(Cl)nc(NC=O)nc1Cl [Substance 58],,0.69 ± 0.26 % of the controls,Production of prostaglandins in % of the controls [3]: 12.30 ± 0.54 % of the controls
CCC(C)c1c(Cl)nc(N)nc1I (stereo not drawn) [Substance 37],49.11 ± 3.29 % of the controls,6.67 ± 5.15 % of the controls,
CCCCCCc1c(Cl)nc(NC=O)nc1Cl [Substance 55],144.97 ± 18.27 % of the controls,14.77 ± 9.19 % of the controls,
CCCCCCc1c(Cl)nc(N=CN(C)C)nc1Cl [Substance 22],,61.34 ± 3.91 % of the controls,
CCC(C)c1c(I)nc(N)nc1I (stereo not drawn) [Substance 36],,2.80 ± 1.28 % of the controls,
